Literature values in US20200237731A1, “USE OF CLOXACILLIN TO INHIBIT/PREVENT BIOFILM FORMATION” (priority 2017, published 2020).

Columns and labels:
S. aureus strain USA 300 = conditions: sub-MIC doses; Mlynek et al., 2016; cited from earlier work
[1] = test system: biofilm forming Staphylococcus aureus; conditions: compounds tested individually; Singh and Mishra, 2012; cited from earlier work
Clostridium difficile = conditions: Vuotto et al., 2016; cited from earlier work
S. aureus = conditions: sub-MIC doses; Mirani et al., 2011; cited from earlier work
[2] = test system: clinical isolates of S. aureus; conditions: in vitro; Tunney et al., 2007; cited from earlier work

## CC1(C)S[C@@H]2[C@H](NC(=O)[C@H](N)c3ccc(O)cc3)C(=O)N2[C@H]1C(=O)O [amoxicillin]
S. aureus strain USA 300
  attachment of S. aureus strain USA 300: induces attachment

## CC1(C)S[C@@H]2[C@H](NC(=O)[C@H](N)c3ccccc3)C(=O)N2[C@H]1C(=O)O [ampicillin]
[1]
  preventive action against biofilm formation: not sufficiently active

## Cc1ncc([N+](=O)[O-])n1CCO [metronidazole]
Clostridium difficile
  biofilm formation by Clostridium difficile: increases biofilm formation

## Cc1onc(-c2ccccc2)c1C(=O)N[C@@H]1C(=O)N2[C@@H]1SC(C)(C)[C@@H]2C(=O)O [oxacillin]
S. aureus
  biofilm formation by S. aureus: induces biofilm formation

## CN[C@H](CC(C)C)C(=O)N[C@H]1C(=O)N[C@@H](CC(N)=O)C(=O)N[C@H]2C(=O)N[C@H]3C(=O)N[C@H](C(=O)N[C@H](C(=O)O)c4cc(O)cc(O)c4-c4cc3ccc4O)[C@H](O)c3ccc(c(Cl)c3)Oc3cc2cc(c3O[C@@H]2O[C@H](CO)[C@@H](O)[C@H](O)[C@H]2O[C@H]2C[C@](C)(N)[C@H](O)[C@H](C)O2)Oc2ccc(cc2Cl)[C@H]1O [vancomycin]
S. aureus
  biofilm formation by S. aureus: induces biofilm formation

## gentamicin
[2]
  effect of treatment of bone cement on biofilm formation: ineffectiveness

## penicillin
[1]
  preventive action against biofilm formation: not sufficiently active
